Test results: PMC3152580 (Journal of the American Chemical Society, 2011)

Target: E. coli Alkaline Phosphatase (AP) (Escherichia coli, UniProt P00634)
Type: biochemical
Details: pH 8

Chain of E. coli Alkaline Phosphatase (AP) (P00634 22-471): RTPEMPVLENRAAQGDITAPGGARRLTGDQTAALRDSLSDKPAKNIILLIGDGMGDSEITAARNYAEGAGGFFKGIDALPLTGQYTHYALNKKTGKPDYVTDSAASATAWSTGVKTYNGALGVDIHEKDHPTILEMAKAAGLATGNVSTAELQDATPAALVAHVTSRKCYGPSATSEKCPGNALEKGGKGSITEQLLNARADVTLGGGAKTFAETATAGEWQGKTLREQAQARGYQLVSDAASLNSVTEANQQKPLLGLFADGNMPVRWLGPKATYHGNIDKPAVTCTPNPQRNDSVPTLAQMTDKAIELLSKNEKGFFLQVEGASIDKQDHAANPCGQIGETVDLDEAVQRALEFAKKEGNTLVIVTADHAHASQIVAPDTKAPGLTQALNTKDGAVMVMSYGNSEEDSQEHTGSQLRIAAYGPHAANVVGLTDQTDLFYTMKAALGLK

O=S(=O)(O)O [sulfate]
differential binding energy between Pi and sulfate binding: at least 8.5 kcal/mol
inhibition of AP by sulfate: No significant inhibition
